From a compilation of properties of binary mixtures (doi:10.1021/acs.jced.9b01018)

Assay: xn = mol fraction of the nth substance listed
Conditions: 100 kPa

CC(=O)[O-].CCCC[n+]1ccn(C)c1 + O
viscosity [mPa·s]
Conditions	278.15 K	283.15 K	293.15 K	298.15 K	303.15 K	313.15 K	323.15 K	333.15 K	343.15 K	353.15 K
x2 = 0.012	2390	1403	562	375	260	136.6	79.4	–	31.37	21.85
x2 = 0.0173	2429	1425	567	380	263	–	78	48.1	31.4	22.07
